ChEMBL document CHEMBL5154907, “Discovery and Anti-Inflammatory Activity Evaluation of a Novel CDK8 Inhibitor through Upregulation of IL-10 for the Treatment of Inflammatory Bowel Disease In Vivo” (J Med Chem, 2022)
The source made the active and inactive calls. No cut-off for these calls is given here.

Experiments:
[1] = test system: Mus musculus; experiment: Anti-inflammatory activity in C57BL/6 mouse model of inflammatory bowel disease assessed as reduction in DSS-induced epithelium destruction in colon tissue at 5 to 20 mg/kg, po daily measured after 10 days by hematoxylin and eosin staining based histopathological analysis; assay type: functional, organism-based; conditions: dose 5-20 mg/kg, time 10.0 day
[2] = target: T1, Cyclin-dependent kinase 8 (Mus musculus) (UniProt Q8R3L8); experiment: Inhibition of CDK8 in IFN-gamma-stimulated mouse BMDC cells assessed as STAT-1 phosphorylation at Ser727 at 1 to 4 uM treated for 2 hrs followed by IFN-gamma stimulation for 12 hrs by western blot analysis; assay type: cell-based; conditions: dose 1-4 µM, time 14.0 hrs
T1 sequence (whole entry): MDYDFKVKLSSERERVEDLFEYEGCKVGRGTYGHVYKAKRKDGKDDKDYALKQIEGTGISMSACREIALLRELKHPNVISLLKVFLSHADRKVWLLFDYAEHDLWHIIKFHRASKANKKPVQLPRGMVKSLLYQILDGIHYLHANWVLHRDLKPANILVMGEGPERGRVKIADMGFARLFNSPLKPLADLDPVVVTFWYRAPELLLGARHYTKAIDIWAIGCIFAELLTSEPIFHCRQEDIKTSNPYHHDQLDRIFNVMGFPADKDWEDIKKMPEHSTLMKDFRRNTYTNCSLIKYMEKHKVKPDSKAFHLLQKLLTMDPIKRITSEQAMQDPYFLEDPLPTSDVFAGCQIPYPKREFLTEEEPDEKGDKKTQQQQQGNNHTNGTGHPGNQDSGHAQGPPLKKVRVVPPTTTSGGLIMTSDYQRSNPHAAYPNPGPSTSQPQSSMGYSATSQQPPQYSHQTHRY

[3] = test system: BMDC; experiment: Anti-inflammatory activity against R848 stimulated-mouse BMDC cells assessed as downregulation of IL-6 production by ELISA method; assay type: functional, cell-based
[4] = test system: Mus musculus; experiment: Anti-inflammatory activity in C57BL/6 mouse model of inflammatory bowel disease assessed as decrease in DSS-induced IL-6 levels in serum at 5 to 20 mg/kg, po daily measured after 10 days by ELISA method; assay type: functional, organism-based; conditions: dose 5-20 mg/kg, time 10.0 day
[5] = test system: Mus musculus; experiment: Anti-inflammatory activity in C57BL/6 mouse model of inflammatory bowel disease assessed as decrease in DSS-induced P38 phosphorylation in colon tissue at 5 to 20 mg/kg, po measured after 10 days by western blot analysis; assay type: functional, organism-based; conditions: dose 5-20 mg/kg, time 10.0 day, DDE = dose-dependent effect
[6] = Acute toxicity in 12 hr fasted ICR mouse assessed as effect on spleen at 2000 mg/kg, po measured after 7 days by hematoxylin and eosin staining based histopathological analysis; assay type: organism-based; conditions: in vivo, 168 h, time 7 day
[7] = test system: Mus musculus; experiment: Anti-inflammatory activity in DSS-induced C57BL/6 mouse model of inflammatory bowel disease assessed as reduction in colitis development by measuring disease activity index score at 5 to 20 mg/kg, po administered measured after 7 days; assay type: functional, organism-based; conditions: dose 5-20 mg/kg, time 7.0 day, DDE = dose-dependent effect
[8] = target: c-Jun N-terminal kinase (Mus musculus) (UniProt Q91Y86+Q9WTU6+Q61831); experiment: Inhibition of JNK phosphorylation in R848-stimulated mouse BMDC cells at 1 to 4 uM treated for 2 hrs followed by R848 stimulation for 12 hrs by western blot analysis; assay type: cell-based; conditions: dose 1-4 µM, time 14.0 hrs
Sequence of c-Jun N-terminal kinase (Mus musculus) (Q61831 whole entry, looked up): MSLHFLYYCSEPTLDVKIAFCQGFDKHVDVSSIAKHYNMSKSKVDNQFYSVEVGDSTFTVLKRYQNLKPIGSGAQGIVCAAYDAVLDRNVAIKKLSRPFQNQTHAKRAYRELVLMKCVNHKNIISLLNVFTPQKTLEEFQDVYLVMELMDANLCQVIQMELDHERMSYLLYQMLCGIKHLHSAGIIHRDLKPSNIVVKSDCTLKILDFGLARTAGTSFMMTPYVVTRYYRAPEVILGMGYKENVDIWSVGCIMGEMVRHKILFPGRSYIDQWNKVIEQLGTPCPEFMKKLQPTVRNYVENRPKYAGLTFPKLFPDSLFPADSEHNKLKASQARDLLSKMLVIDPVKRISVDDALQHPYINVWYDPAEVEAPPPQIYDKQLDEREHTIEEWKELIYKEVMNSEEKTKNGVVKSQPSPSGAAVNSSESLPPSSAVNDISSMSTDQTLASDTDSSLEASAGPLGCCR
Sequence of c-Jun N-terminal kinase (Mus musculus) (Q91Y86 whole entry, looked up): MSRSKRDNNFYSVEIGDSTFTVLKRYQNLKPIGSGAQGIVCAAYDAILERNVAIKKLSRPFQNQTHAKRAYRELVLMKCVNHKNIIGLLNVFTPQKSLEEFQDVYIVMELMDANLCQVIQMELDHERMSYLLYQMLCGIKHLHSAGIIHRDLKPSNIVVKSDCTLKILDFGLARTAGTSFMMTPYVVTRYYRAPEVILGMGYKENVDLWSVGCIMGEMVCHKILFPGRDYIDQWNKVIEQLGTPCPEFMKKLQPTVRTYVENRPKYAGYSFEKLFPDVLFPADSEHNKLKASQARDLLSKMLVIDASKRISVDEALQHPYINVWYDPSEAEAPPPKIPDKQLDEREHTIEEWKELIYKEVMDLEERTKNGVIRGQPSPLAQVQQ
Sequence of c-Jun N-terminal kinase (Mus musculus) (Q9WTU6 whole entry, looked up): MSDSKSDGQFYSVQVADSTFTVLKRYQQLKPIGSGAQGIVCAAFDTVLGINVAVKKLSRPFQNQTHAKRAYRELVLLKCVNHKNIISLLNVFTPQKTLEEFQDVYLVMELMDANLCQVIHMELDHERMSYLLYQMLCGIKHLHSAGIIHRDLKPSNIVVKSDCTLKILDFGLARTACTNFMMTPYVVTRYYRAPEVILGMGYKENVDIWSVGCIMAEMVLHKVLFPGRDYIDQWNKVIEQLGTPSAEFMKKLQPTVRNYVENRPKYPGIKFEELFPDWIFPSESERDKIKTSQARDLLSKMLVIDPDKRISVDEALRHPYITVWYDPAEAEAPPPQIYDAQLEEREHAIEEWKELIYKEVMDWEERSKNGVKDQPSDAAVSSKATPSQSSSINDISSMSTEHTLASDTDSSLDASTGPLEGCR

[9] = test system: Mus musculus; experiment: Anti-inflammatory activity in C57BL/6 mouse model of inflammatory bowel disease assessed as decrease in DSS-induced TNF-alpha levels in serum at 5 to 20 mg/kg, po daily measured after 10 days by ELISA method; assay type: functional, organism-based; conditions: dose 5-20 mg/kg, time 10.0 day
[10] = test system: Mus musculus; experiment: Anti-inflammatory activity in C57BL/6 mouse model of inflammatory bowel disease assessed as suppression of DSS-induced NF-kappa-B p65 expression in colon tissue at 5 to 20 mg/kg, po measured after 10 days by western blot analysis; assay type: functional, organism-based; conditions: dose 5-20 mg/kg, time 10.0 day
[11] = test system: Mus musculus; experiment: Anti-inflammatory activity in C57BL/6 mouse model of inflammatory bowel disease assessed as decrease in DSS-induced IL-6 levels in colon tissue at 5 to 20 mg/kg, po daily measured after 10 days by ELISA method; assay type: functional, organism-based; conditions: dose 5-20 mg/kg, time 10.0 day
[12] = Acute toxicity in 12 hr fasted ICR mouse assessed as effect on heart at 2000 mg/kg, po measured after 7 days by hematoxylin and eosin staining based histopathological analysis; assay type: organism-based; conditions: in vivo, 168 h, time 7 day
[13] = target: Myeloid differentiation primary response protein MyD88 (Mus musculus) (UniProt P22366); experiment: Inhibition of MyD88 expression in R848-stimulated mouse BMDC cells at 1 to 4 uM treated for 2 hrs followed by R848 stimulation for 12 hrs by western blot analysis; assay type: cell-based; conditions: dose 1-4 µM, time 14.0 hrs, DDE = dose-dependent effect
Sequence of Myeloid differentiation primary response protein MyD88 (Mus musculus) (P22366 whole entry): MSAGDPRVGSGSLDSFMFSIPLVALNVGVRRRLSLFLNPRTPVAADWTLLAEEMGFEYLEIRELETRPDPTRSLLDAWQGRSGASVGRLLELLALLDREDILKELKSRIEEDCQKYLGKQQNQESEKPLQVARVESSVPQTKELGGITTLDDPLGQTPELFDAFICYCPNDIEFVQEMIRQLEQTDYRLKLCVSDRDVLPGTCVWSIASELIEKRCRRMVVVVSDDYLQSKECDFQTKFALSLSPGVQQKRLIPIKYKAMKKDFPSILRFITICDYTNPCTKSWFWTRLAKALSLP

[14] = test system: BMDC; experiment: Anti-inflammatory activity against R848-stimulated mouse BMDC cells assessed as upregulation of IL-10 production at 5 uM treated for 24 hrs followed by R848 stimulation for 12 hrs by ELISA method (reference value: 100 %); assay type: functional; conditions: time 36 hrs
[15] = test system: Mus musculus; experiment: Anti-inflammatory activity in C57BL/6 mouse model of inflammatory bowel disease assessed as increase in DSS-induced IL-10 levels in colon tissue administered orally daily measured after 10 days by ELISA method; assay type: functional, organism-based; conditions: dose 5-20 mg/kg, route po, time 10.0 day
[16] = test system: Mus musculus; experiment: Anti-inflammatory activity in DSS-induced C57BL/6 mouse model of inflammatory bowel disease assessed as increase in colon length at 5 to 20 mg/kg, po daily measured after 10 days; assay type: functional, organism-based; conditions: dose 5-20 mg/kg, time 10.0 day
[17] = test system: Mus musculus; experiment: Anti-inflammatory activity in DSS-induced C57BL/6 mouse model of inflammatory bowel disease assessed as increase in STAT3 phosphorylation in colon tissue at 5 to 20 mg/kg, po measured after 10 days by western blot analysis; assay type: functional, organism-based; conditions: dose 5-20 mg/kg, time 10.0 day
[18] = test system: Mus musculus; experiment: Anti-inflammatory activity in C57BL/6 mouse model of inflammatory bowel disease assessed as decrease in DSS-induced JNK phosphorylation in colon tissue at 5 to 20 mg/kg, po measured after 10 days by western blot analysis; assay type: functional, organism-based; conditions: dose 5-20 mg/kg, time 10.0 day, DDE = dose-dependent effect
[19] = target: Cyclin-dependent kinase 8 (Homo sapiens) (UniProt P49336); experiment: Binding affinity to CDK8 in human HCT-116 cells assessed as increase in thermal stability tolerance at 10 uM treated for 4 hrs followed by compound washout by CETSA assay; assay type: cell-based
Sequence of Cyclin-dependent kinase 8 (Homo sapiens) (P49336 whole entry): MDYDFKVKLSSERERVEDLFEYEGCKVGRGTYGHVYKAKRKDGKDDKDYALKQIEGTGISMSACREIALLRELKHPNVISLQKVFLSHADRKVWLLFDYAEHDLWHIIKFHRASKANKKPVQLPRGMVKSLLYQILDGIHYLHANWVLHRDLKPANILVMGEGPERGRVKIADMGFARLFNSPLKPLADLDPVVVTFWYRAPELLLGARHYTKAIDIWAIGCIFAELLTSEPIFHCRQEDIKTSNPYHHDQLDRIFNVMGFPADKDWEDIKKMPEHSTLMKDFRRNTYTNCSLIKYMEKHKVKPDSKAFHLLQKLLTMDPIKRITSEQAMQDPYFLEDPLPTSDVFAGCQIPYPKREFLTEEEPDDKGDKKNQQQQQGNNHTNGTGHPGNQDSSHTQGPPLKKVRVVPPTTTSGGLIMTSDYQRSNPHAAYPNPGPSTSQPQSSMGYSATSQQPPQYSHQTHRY

[20] = test system: Mus musculus; experiment: Anti-inflammatory activity in C57BL/6 mouse model of inflammatory bowel disease assessed as reversal of DSS-induced MyD88 expression in colon tissue at 5 to 20 mg/kg, po measured after 10 days by western blot analysis; assay type: functional, organism-based; conditions: dose 5-20 mg/kg, time 10.0 day
[21] = Acute toxicity in 12 hr fasted ICR mouse assessed as body weight loss at 2000 mg/kg, po measured daily for 7 days; assay type: organism-based; conditions: in vivo, 168 h, time 7 day
[22] = Half life in Sprague-Dawley rat at 5 mg/kg, iv measured for 3 to 1440 mins by HPLC analysis; assay type: ADME, organism-based; conditions: in vivo, time 3-1440 min
[23] = test system: Mus musculus; experiment: Anti-inflammatory activity in C57BL/6 mouse model of inflammatory bowel disease assessed as reduction in DSS-induced cellular infiltration in colon tissue at 5 to 20 mg/kg, po daily measured after 10 days by hematoxylin and eosin staining based histopathological analysis; assay type: functional, organism-based; conditions: dose 5-20 mg/kg, time 10.0 day
[24] = test system: BMDC; experiment: Inhibition of NF-kappa-B phosphorylation in R848-stimulated mouse BMDC cells at 1 to 4 uM treated for 2 hrs followed by R848 stimulation for 12 hrs by western blot analysis; assay type: cell-based; conditions: dose 1-4 µM, time 14.0 hrs

## CCc1ccccc1NC(=O)c1cncc(-c2ccc(C(=O)N3CCNCC3)cc2)c1
[1]
  Activity: Active
[2]
  inhibition: Active
[3]
  Activity: Active
[4]
  Activity: Active
[5]
  Activity: Dde
[6]
  Activity: Non-Toxic
[7]
  Activity: Dde
[8]
  inhibition: Active
[9]
  Activity: Active
[10]
  Activity: Active
[11]
  Activity: Active
[12]
  Activity: Non-Toxic
[13]
  inhibition: Dde
[14]
  Activity: 88%
[15]
  Activity: Active
[16]
  Activity: Active
[17]
  Activity: Active
[18]
  Activity: Dde
[19]
  Activity: Active
[20]
  Activity: Active
[21]
  Activity: Non-Toxic
[22]
  half-life: 1.83 h
[23]
  Activity: Active
[24]
  inhibition: Active
